Assay results: article PMC9029529, “Distinct Mechanisms of Cytotoxicity in Novel Nitrogenous Heterocycles: Future Directions for a New Anti-Cancer Agent” (Molecules, 2022)

Experiments:
KAIMRC1 cells = assay: CellTiter-Glo assay, KAIMRC1; type: cell-based; conditions: Homo sapiens, 24 h, read-out: IC50 Breast Cancer KAIMRC1
Method: (§1) To validate the anti-proliferative activity of the imidazole derivatives, the compounds were tested against several cancer cell lines, which included breast cancer (MDA-MB-231, KAIMRC1, and KAIMRC2), colorectal cancer (HCT8), and acute promyelocytic leukemia cells (HL60). KAIMRC1 was isolated from a person with stage II-B breast cancer and is ER+/PR+ and HER2-. In comparison, KAIMRC2 was isolated from a person with metastasized breast cancer and is a triple-negative (ER-/PR-, and HER2-) tumor cell line.
(§2) The CellTiter-Glo assay (Promega™, Madison, WI, USA) was used to evaluate imidazole and oxazolone derivatives cytotoxicity against various cancer cell lines; MCF-10A, HL60, MDA-MB-231, and HCT8, purchased from ATCC, USA, except KAIMRC1 and KAIMRC2, which were isolated, established, and characterized in the core laboratory facility KAIMRC, Riyadh, Saudi Arabia. The cells were seeded in white 96-well plates at a density of 5 × 10^3 cells/well in a 100 μL of growth medium with various concentrations of each compound ranging from 0 to 250 µM. Cells were incubated at 37 °C for 24 h. Plates were equilibrated at RT for 30 min. A quantity of 100 µL of CellTiter-Glo reagent was added to each well and mixed for 2 min on an orbital shaker. Plates were incubated for 10 min at RT before measuring the luminescence using an Envision plate reader (Perkin Elmer). Half-maximal inhibitory concentration IC50 values (μM) were calculated for each imidazole derivative from the dose–response curve. The cytotoxic effect at a concentration <10 µM was considered strongly active and from 11 to 100 µM was considered moderately active, whereas above 100 µM was deemed non-active. Mitoxantrone was utilized as a positive control. Experiments were performed in triplicates.

KAIMRC2 cells = assay: CellTiter-Glo assay, KAIMRC2; type: cell-based; conditions: Homo sapiens, 24 h, read-out: IC50 Breast Cancer KAIMRC2
Method: as §1, §2

MDA-MB-231 cells [1] = assay: MTT assay, MDA-MB-231; type: cell-based, human; conditions: Homo sapiens, MDA-MB-231, 24 h, 0 to 250 μM, read-out: IC50 Breast Cancer (MDA-MB-231)
Method: (§3) To establish the cytotoxic effect of the nitrogenous derivatives, cells were treated with various concentrations of the drugs ranging from 0 to 250 μM. Following a 24 h incubation period, cell viability was assessed using the MTT assay. Mitoxantrone served as a positive control to evaluate growth inhibition. Since heterogeneity is a hallmark of cancer, the study included cell lines with diverse genomic and proteomic profiles. […] In this regard, further optimization would be required to increase the selective therapeutic potential of compound 9. To determine whether the anti-proliferative effect of the nitrogen derivatives could be translated to other malignancies, we tested the cytotoxic effect on the HCT8 (colorectal cancer) cell line. HCT8 is an adenocarcinoma driven by the Kirsten Rat Sarcoma (KRAS) mutation, unlike MCF-10A [28].
(§4) The MTT assay was utilized to examine the imidazole derivatives’ anti-proliferative activity against MCF-10A, MDA-MB-231, and HCT8 cell lines, purchased from ATCC, USA [47]. Firstly, 5 × 10^3 cells/well were seeded in a 96-well plate in 100 μL of growth medium and were subsequently cultured overnight with various concentrations of each compound ranging from 0 to 250 µM [48]. The media was aspirated, and 50 µL of serum-free media and 50 µL of MTT solution were added to each well. Next, cells were incubated at 37 °C for 3 h, then 150 µL of MTT solvent was added into each well. After that, plates were wrapped in foil and agitated for 15 min on an orbital shaker. Finally, the absorbance was measured within 1 h at OD590 nm. Half-maximal inhibitory concentration IC50 values (μM) were calculated for each compound from the dose–response curve. Experiments were performed in triplicates.

MDA-MB-231 cells [2] = assay: CellTiter-Glo assay, MDA-MB-231; type: cell-based; conditions: Homo sapiens, 24 h, read-out: IC50 Breast Cancer MDA-MB-231
Method: as §1, §2

HL60 cells = assay: CellTiter-Glo assay, HL60; type: cell-based, human; conditions: Homo sapiens, HL-60, 24 h, read-out: IC50 Leukemia HL60
Method: as §1, §2

MCF-10A cells = assay: MTT assay, MCF-10A; type: cell-based, human; conditions: Homo sapiens, MCF-10A, 24 h, 0 to 250 μM, read-out: IC50 Non-Malignant Breast Epithelial Cells (MCF-10A)
Method: as §3, §4

HCT8 cells [3] = assay: CellTiter-Glo assay, HCT8; type: cell-based; conditions: Homo sapiens, HCT-8, 24 h, read-out: IC50 Colorectal Cancer HCT8
Method: as §1, §2

HCT8 cells [4] = assay: MTT assay, HCT8; type: cell-based; conditions: Homo sapiens, HCT-8, 24 h, 0 to 250 μM, read-out: IC50 Colorectal Cancer (HCT8)
Method: as §3, §4

Compound | IC50 (MDA-MB-231 cells [1]) [µM] | IC50 (MDA-MB-231 cells [2]) [µM] | IC50 (HCT8 cells [3]) [µM] | IC50 (HCT8 cells [4]) [µM] | IC50 (KAIMRC1 cells) [µM] | IC50 (KAIMRC2 cells) [µM] | IC50 (HL60 cells) [µM] | IC50 (MCF-10A cells) [µM]
NN1C(=O)/C(=C/c2ccccc2)N=C1c1ccccc1 [Compound 14] | 139 | 243 |  |  | 243 | 161 |  | 
O=C1/C(=C/c2ccccc2O)N=C(c2ccccc2)N1Nc1ccc([N+](=O)[O-])cc1[N+](=O)[O-] [Compound 10] | 56 |  |  |  |  |  |  | 
COc1cc(/C=C2\N=C(c3ccccc3)OC2=O)ccc1O [Compound 6] | 50.6 |  |  | 70.8 |  |  |  | 50.4
O=C1/C(=C/c2ccco2)N=C(c2ccccc2)N1Nc1ccc([N+](=O)[O-])cc1[N+](=O)[O-] [Compound 12] | 50.8 |  |  |  |  |  |  | 
COc1ccc(/C=C2\N=C(c3ccccc3)N(N)C2=O)cc1 [Compound 13] | 78.5 |  |  |  |  |  |  | 
O=C1c2c(O)ccc(O)c2C(=O)c2c(NCCNCCO)ccc(NCCNCCO)c21 [Mitoxantrone, reference compound] | 3.17 | 1.94 | 5.62 | 0.711 | 1.71 | 0.801 | 0.125 | 2.9
COc1cc(/C=C2\N=C(c3ccccc3)N(Nc3ccc([N+](=O)[O-])cc3[N+](=O)[O-])C2=O)ccc1O [Compound 11] | 57.1 | 45.4 | 40.4 |  | 24.8 | 32.2 | 20.9 | 

Now from value to molecule, other results behind:

IC50 (MDA-MB-231 cells [1]) [µM] | IC50 (MDA-MB-231 cells [2]) [µM] | IC50 (HCT8 cells [3]) [µM] | IC50 (HCT8 cells [4]) [µM] | Compound | IC50 (KAIMRC1 cells) [µM] | IC50 (KAIMRC2 cells) [µM] | IC50 (HL60 cells) [µM] | IC50 (MCF-10A cells) [µM]
23 | 60.9 | 91.2 | 73.5 | O=C1OC(c2ccccc2)=N/C1=C\c1ccco1 [Compound 7] | 39.2 | 87.9 | 67.4 | 63
69.4 |  |  |  | CN(C)c1ccc(/C=C2\N=C(c3ccccc3)OC2=O)cc1 [Compound 4] |  |  |  | 
40 |  |  |  | COc1cccc(/C=C2\N=C(c3ccccc3)OC2=O)c1 [Compound 3] | 58.6 | 64.3 |  | 
22.9 |  |  | 51.1 | O=C1OC(c2ccccc2)=N/C1=C\c1ccccc1 [Compound 1] | 62.2 | 59.2 |  | 
43.6 |  | 121 | 72.2 | O=C1OC(c2ccccc2)=N/C1=C\C=C\c1ccccc1 [Compound 2] | 104 | 121 |  | 65.5
39.6 | 52.1 | 63.7 | 39.1 | O=C1OC(c2ccccc2)=N/C1=C\c1ccccc1O [Compound 5] | 28.6 | 30.3 | 17.9 | 34.2
